The subject of this test is NCI-H196 complex spheroid viability. The test can be described thus: Anticancer human tumor NCI-H196 cell line growth inhibition [LSD1].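 On all read-outs here: spheroids exposed to agents for 7 days before readout.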 To be noted: for viability, T/C: stronger effect = lower value; for IC50: curve of compound. The text has this:
Multicellular complex tumor spheroid response to LSD1 Inhibitor Iadademstat in combination with a variety of drugs and investigational agents in selected tumor cell lines
The current study was undertaken to assess response to LSD1 inhibitors in combination with standard-of-care drugs and investigational agents in solid tumor complex spheroid models as well as in the K-562 leukemia. Complex spheroids include a stromal component modeled by human endothelial cells (HUVEC) and fibroblasts modeled by human mesenchymal stem cells (MSCs). The concentration ranges selected for each drug and investigational agent were based upon clinically achievable concentrations if the clinical Cmax of the agent was known.
Compounds. The drugs and investigational agents used in this study are listed on Table 1. All of the agents used, including staurosporine (NSC755774) and gemcitabine (NSC613327), were obtained from the Developmental Therapeutics Program, NCI. FDA-approved anticancer drugs are available from the NCI at http://dtp.nci.nih.gov/branches/dscb/oncology_drugset_explanation.html. Drugs and investigational agents were >95% pure by proton nuclear magnetic resonance (NMR) and liquid chromatography/mass spectrometry (LC/MS). Stock solutions were prepared at 400x in DMSO, stored at -70 degrees C, and diluted in fresh medium prior to their use. The final concentration of DMSO in cell culture wells never exceeded 0.25% (v/v). The FDA-approved anticancer drug set is available from the Developmental Therapeutics Program at https://dtp.cancer.gov/organization/dscb/obtaining/available_plates.htm. All drugs and investigational agents were tested over a range starting from a high concentration at or near the clinical Cmax and decreasing in half-log increments. If the clinical Cmax for an agent had not been determined, the highest concentration tested was 10 microM.
Cell Lines. The patient-derived cancer cell (PDC) lines: 292921-168-R-J2-PDC, K24384-001-R-PDC, and 521955-158-R2-J5-PDC pancreatic carcinomas, 556581-035-R-J1 ovarian carcinoma, 324938-238-R-J1-PDC, 855422-203-R-J1-PDC and 883617-216-R-J1-PDC urothelial bladder carcinomas, 743489-274-T-PDC renal cell carcinoma, 138582-R-J1 Merkel cell tumor, K60290-347-R-J1 and K57222-313-R-J1-PDC glioblastomas, 653999-131-R-J2-PDC, LG0703-F948-PDC, and 349418-098-R-PDC non-small cell lung carcinomas, 885512-296-R-J2-PDC, 171881-019-R-J1-PDC breast carcinomas and 186277-243-T-J2-PDC and 233499-124-R-J2-PDC colon carcinomas were obtained from the NCI Patient-Derived Models Repository (PDMR, https://pdmr.cancer.gov). The established cell lines NCI/ADR-RES (RRID:CVCL_14520 and OVCAR-5 (RRID:CVCL_1628) ovarian carcinomas, 786-O (RRID:CVCL_1051) and A498 (RRID:CVCL_A498) renal cell carcinoma, NCI-H211 (ATCC, cat. CRL-5824; RRID:CVCL_1529), NCI-H196 (ATCC, cat. CRL-5823, RRID:CVCL_1509), SW 1271 (ATCC, cat. CRL-2177, RRID:CVCL_1716) and NCI-H1876 (ATCC, cat. CRL-5902, RRID:CVCL_1503) small cell lung carcinomas, MDA-MB-231 (RRID:CVCL_0062) and MDA-MB-468 (RRID:CVCL_0419)breast carcinomas (10-12). Pooled donor human umbilical vein endothelial cells (HUVEC, Lonza, cat. CC-2519) and human mesenchymal stem cells (hMSC, Lonza, cat. PT-2501) were purchased from Lonza (Walkersville, MD).
Cell Culture. All cells were maintained in an incubator at 37 degrees C and 5% CO2 with 95% humidity. The PDC lines were cultured according to standard operating procedures established by the NCI PDMR (https://pdmr.cancer.gov). Briefly all PDCs were thawed and cultured in Matrigel-coated flasks prepared with a working solution of 1X Ham's F-12 nutrient mix, without supplementation (Invitrogen, Waltham, MA, cat. 11765054), 100 U/mL penicillin-streptomycin (Invitrogen, cat. 15140122), and 2.5% Matrigel (Corning Inc., Corning, NY, cat. 354248) for the first three passages. […]

Several values for one entry are separate records, joined by “and”; a condition that tells them apart may be missing. Equal entries are not always repeated. Some results are limits rather than exact numbers.

In general, viability, T/C refers to the ratio of treated to control. One may read the IC50 as the concentration that gives 50% inhibition. For the molecule `CC(C)CC(NC(=O)C(Cc1ccccc1)NC(=O)c1cnccn1)B(O)O` (stereo not drawn), the IC50 was 0.000531 µM and 0.00044 µM. Also, for the setting “compound 0.000316 µM”, the viability, T/C was 86.3% and 68.7%. For the same molecule, where the note is “compound 0.001 µM”, the viability, T/C is 5.76% and 3.52%. The viability, T/C (compound 0.00316 µM) was 4.42% and 2.33%. The viability, T/C (compound 0.01 µM) was 2.79% and 2.47%. Also, the viability, T/C (compound 0.0316 µM) was 2.25% and 1.91%. Moreover, the viability, T/C (compound 0.1 µM) is 0.92% and 0.81%.
Regarding `CC(C)CC(NC(=O)CNC(=O)c1cc(Cl)ccc1Cl)B1OC(=O)CC(CC(=O)O)(C(=O)O)O1` (stereo not drawn), the IC50 was 0.022 µM and 0.0126 µM. Moreover, for the setting “compound 0.000316 µM”, the viability, T/C was 108% and 104%. In addition, for the setting “compound 0.001 µM”, the viability, T/C was 113% and 107%. Moreover, the viability, T/C (compound 0.00316 µM) was 103% and 92%. Further, the viability, T/C (compound 0.01 µM) was 83.3% and 57.1%. In addition, the viability, T/C (compound 0.0316 µM) is 34.6% and 20.3%. Besides, where the note is “compound 0.1 µM”, the viability, T/C was 6.61% and 4.84%.
For `CC1(C)CCC(CN2CCN(c3ccc(C(=O)NS(=O)(=O)c4ccc(NCC5CCOCC5)c([N+](=O)[O-])c4)c(Oc4cnc5[nH]ccc5c4)c3)CC2)=C(c2ccc(Cl)cc2)C1`, the IC50 is 5.62 µM and 6.29 µM. In addition, for the setting “compound 0.0316 µM”, the viability, T/C is 99.4% and 101%. The viability, T/C (compound 0.1 µM) was 104% and 99.2%. Besides, under “compound 0.316 µM”, the viability, T/C was 94.9% and 98.7%. For the same molecule, for the setting “compound 1 µM”, the viability, T/C is 103% and 93.7%. The viability, T/C (compound 3.16 µM) was 86.4% and 94.3%. Besides, the viability, T/C (compound 10 µM) is 13% and 20.1%.
`CC1COCCN1c1cc(-c2ccnn2C)c2ccnc(-c3ccn[nH]3)c2n1` (stereo not drawn): the IC50 is 0.724 µM and 0.543 µM. Also, the viability, T/C (compound 0.00316 µM) was 77.7% and 75.2%. Also, under “compound 0.01 µM”, the viability, T/C was 77.9% and 70%. Moreover, the viability, T/C (compound 0.0316 µM) was 64.6% and 70%. The viability, T/C (compound 0.1 µM) was 65.4% and 57.1%. Moreover, the viability, T/C (compound 0.316 µM) was 55.8% and 53.1%. Moreover, the viability, T/C (compound 1 µM) is 47.5% and 46.9%.
Consider `CCN(c1cc(-c2ccc(CN3CCOCC3)cc2)cc(C(=O)NCc2c(C)cc(C)[nH]c2=O)c1C)C1CCOCC1`, for which the IC50 was more than 3 µM. For the same molecule, the viability, T/C (compound 0.00949 µM) is 95.5% and 97.5%. Also, the viability, T/C (compound 0.03 µM) is 103% and 95.3%. In addition, the viability, T/C (compound 0.0949 µM) was 92.9% and 110%. In addition, for the setting “compound 0.3 µM”, the viability, T/C is 93.9% and 107%. Under “compound 0.949 µM”, the viability, T/C is 101% and 113%. Further, under “compound 3 µM”, the viability, T/C is 108% and 100%.
For the molecule `CC[C@@]1(O)C(=O)OCc2c1cc1n(c2=O)Cc2cc3c(CN(C)C)c(O)ccc3nc2-1`, the IC50 is more than 0.1 µM. The viability, T/C (compound 0.000316 µM) is 98.3% and 97.6%. Besides, where the note is “compound 0.001 µM”, the viability, T/C is 99% and 93.1%. For the same molecule, the viability, T/C (compound 0.00316 µM) is 95.1% and 99.2%. Moreover, the viability, T/C (compound 0.01 µM) was 109% and 97.3%. In addition, the viability, T/C (compound 0.0316 µM) was 110% and 115%. The viability, T/C (compound 0.1 µM) was 106% and 102%.
On to `CCc1c2c(nc3ccc(O)cc13)-c1cc3c(c(=O)n1C2)COC(=O)[C@]3(O)CC`, for which the IC50 was 0.0101 µM and 0.00888 µM. Further, for the setting “compound 0.000949 µM”, the viability, T/C was 99.5% and 104%. The viability, T/C (compound 0.003 µM) was 103% and 96.6%. In addition, for the setting “compound 0.00949 µM”, the viability, T/C was 52.9% and 47.5%. In addition, the viability, T/C (compound 0.03 µM) is 2.96% and 3.28%. Moreover, the viability, T/C (compound 0.0949 µM) is 1.29% and 0.86%. In addition, under “compound 0.3 µM”, the viability, T/C is 1.52% and 0.88%.
For the molecule `COc1cc(C2c3cc4c(cc3C(OC3OC5COC(C)OC5C(O)C3O)C3COC(=O)C23)OCO4)cc(OC)c1O` (stereo not drawn), the IC50 was more than 3 µM. The viability, T/C (compound 0.00949 µM) is 98.3% and 98.5%. In addition, the viability, T/C (compound 0.03 µM) was 99.7% and 101%. Moreover, the viability, T/C (compound 0.0949 µM) was 98.6% and 112%. Besides, the viability, T/C (compound 0.3 µM) is 108% and 112%. Besides, the viability, T/C (compound 0.949 µM) was 90.5% and 81.5%. The viability, T/C (compound 3 µM) was 65.7% and 59.9%.
On to `COc1cc(Nc2ncc3c(n2)-c2ccc(Cl)cc2C(c2c(F)cccc2OC)=NC3)ccc1C(=O)O`, for which the IC50 is more than 1 µM. For the same molecule, the viability, T/C (compound 0.00316 µM) is 96.3% and 91.4%. Moreover, the viability, T/C (compound 0.01 µM) was 103% and 105%. The viability, T/C (compound 0.0316 µM) is 114% and 99.4%. Further, the viability, T/C (compound 0.1 µM) is 119% and 109%. The viability, T/C (compound 0.316 µM) was 132% and 120%. Where the note is “compound 1 µM”, the viability, T/C is 118% and 121%.

(Values after PubChem BioAssay AID1918958 (Molecular Pharmacology Branch, DTP, NCI, 2023).)
